# Biological target: human σ2 receptor (TMEM97) (Homo sapiens, UniProt Q5BJF2)
# Test: biochemical
# Format: Expi293 membranes
# Settings: read-out: % of control remaining
# Chain of human σ2 receptor (TMEM97) (Q5BJF2 whole entry): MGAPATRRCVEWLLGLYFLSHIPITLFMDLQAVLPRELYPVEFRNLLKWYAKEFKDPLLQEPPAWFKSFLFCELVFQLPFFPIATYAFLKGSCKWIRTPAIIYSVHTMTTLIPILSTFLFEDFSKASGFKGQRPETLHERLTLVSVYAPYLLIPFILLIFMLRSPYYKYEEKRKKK
structure (smiles),measurement,value
C[C@@H]1C[C@@H](c2ccccc2)CCN1Cc1nc(C2CC2)cs1 [ZINC000439311985],remaining activity at 1 µM,106%
CO[C@H](C)CS(=O)(=O)N1CCN(C(=O)C(=O)N2CCCC2)CC1 [ZINC000442921898],remaining activity at 1 µM,111%
CCO[C@@H]1C[C@](CO)(NC[C@H](O)COC2CCOCC2)C1(C)C [ZINC000444807044],remaining activity at 1 µM,120%
O[C@@H](CN[C@@H](c1ccc(Br)cc1Cl)C1CC1)CN1CCCC1 [ZINC000446751851],remaining activity at 1 µM,20.8%
CCC(CC)n1ccc(CN2CC=C(c3ccc(O)cc3)CC2)n1 [ZINC000448446275],remaining activity at 1 µM,38.7%
C[C@@H]1CCC[C@H](NC(=O)CN2CCN(CCC3=CCCCC3)CC2)C1 [ZINC000450551910],remaining activity at 1 µM,16%
CS[C@@H]1CCN(C[C@@H](O)COC(c2ccc(F)cc2)c2ccc(F)cc2)C1 [ZINC000451319844],remaining activity at 1 µM,63%
O=C([C@@H]1C[C@H]1C(F)(F)F)N(CCN1CCCCCC1)C1CCC1 [ZINC000452023252],remaining activity at 1 µM,37.5%
CC(C)N1CC[C@H](N(C)S(=O)(=O)C[C@H]2CCCCC2(F)F)C1 [ZINC000452100574],remaining activity at 1 µM,73.3%
CC(C)N1CC[C@@H](N(C)S(=O)(=O)c2c(F)c(F)cc(F)c2F)C1 [ZINC000452107481],remaining activity at 1 µM,36.9%
C[C@H](CCCc1cccnc1)N[C@@H](C)Cn1cccn1 [ZINC000453142034],remaining activity at 1 µM,24.9%
C[C@@H](CC(N)=O)NC[C@H](CO)Cc1cc(Br)ccc1F [ZINC000453336584],remaining activity at 1 µM,100%
COc1cccnc1CN[C@H](Cc1ccc(C)cc1)C1CC1 [ZINC000453351921],remaining activity at 1 µM,69.2%
Cc1ccc(C[C@H](CO)NCc2cccc(F)c2)cc1C [ZINC000453607577],remaining activity at 1 µM,86.8%
CN1CC[C@@H](CNC(=O)Nc2cc(F)ccc2Oc2ccccc2)C1 [ZINC000454705882],remaining activity at 1 µM,87.6%
CCN(CC)[C@H]1CCN(CC(=O)N[C@@H](c2ccccc2)c2cccs2)C1 [ZINC000464767692],remaining activity at 1 µM,73.8%
CCN(CC)[C@H]1CCN(C(=O)NCCCc2cccc(Cl)c2)C1 [ZINC000465804078],remaining activity at 1 µM,67.7%
C[C@@H]1CN(C2CC2)C[C@H]1NC(=O)N(Cc1cccc(Br)c1)C1CC1 [ZINC000466933503],remaining activity at 1 µM,84.3%
CC(C)CO[C@H]1CCN([C@@H](C)C(=O)N(C)Cc2ccc(Br)cc2)C1 [ZINC000468894194],remaining activity at 1 µM,35.4%
C[C@@H]1[C@H](Cc2ccccc2)CCN1Cc1cc(=O)n2cc(Cl)ccc2n1 [ZINC000472356611],remaining activity at 1 µM,45.9%
COc1ccnc(N2CCN([C@H](C)CCSc3ccccc3)CC2)n1 [ZINC000473272986],remaining activity at 1 µM,66.5%
C[C@H](NC[C@H](CO)Cc1c(F)cccc1Cl)c1ccco1 [ZINC000483826940],remaining activity at 1 µM,22.5%
CCCCNC(=O)[C@H](C)N1CC[C@](C)(CNC(=O)OC(C)(C)C)C1 [ZINC000495656270],remaining activity at 1 µM,45.1%
CN(C[C@H](O)CN[C@@H]1C[C@H]2CCCCN2C1=O)C(=O)OC(C)(C)C [ZINC000496403719],remaining activity at 1 µM,92.4%
C[C@]1(c2ccccc2)CCCN(CC(=O)N2CCc3ccccc32)C1 [ZINC000500192494],remaining activity at 1 µM,69.3%
C[C@@H]1CCN(CC(=O)N(C)[C@@H](C)c2ccc(F)c(F)c2)C[C@@H]1C [ZINC000501775665],remaining activity at 1 µM,20.4%
COCCN1CCC(N[C@H]2COc3cc(F)c(Br)cc32)CC1 [ZINC000504552433],remaining activity at 1 µM,49.2%
CC[C@H]1CN(Cc2ccc(-c3ccccc3)cc2F)C[C@H]1O [ZINC000507809396],remaining activity at 1 µM,14%
Brc1ccccc1CNc1nccn1Cc1ccccc1 [ZINC000508455082],remaining activity at 1 µM,69.3%
Cc1cccc(CNc2nccn2Cc2ccccc2)c1C [ZINC000508475661],remaining activity at 1 µM,38.6%
C[C@H]1C[C@H](N2CCCC2)CN1CC(=O)N(Cc1ccccc1)c1ccccc1 [ZINC000512182007],remaining activity at 1 µM,31.6%
Cc1ccccc1[C@@H]1CCN([C@H](C)C(=O)NCCc2ccccc2)C1 [ZINC000513818302],remaining activity at 1 µM,89.1%
Cc1cccc(NC(=O)N(C)C[C@H]2CCCN2C)c1C(=O)N1CCCC1 [ZINC000516964180],remaining activity at 1 µM,99.3%
NC(=O)[C@H](Cc1ccc(Cl)cc1)NCc1cc2ccccc2s1 [ZINC000517634594],remaining activity at 1 µM,98.7%
Cc1ccccc1[C@H](OC[C@H](O)CN1Cc2ccccc2C1)c1ccccc1 [ZINC000518003593],remaining activity at 1 µM,79.8%
Cc1ccnc2nc(C(=O)N3CCN(CCN4CCCC4)CC3)nn12 [ZINC000518759550],remaining activity at 1 µM,115%
COc1cc(Cl)c(C)cc1NC(=O)[C@H](C)N(C)Cc1sccc1C [ZINC000520440291],remaining activity at 1 µM,102%
O=C(Nc1cnc2ccccc2c1)[C@]1(O)CCN(Cc2ccccc2)C1 [ZINC000524392254],remaining activity at 1 µM,93.9%
CC[C@@H]1CCC[C@H](NC(=O)[C@H](C)N2CCCCCC2)C1 [ZINC000525245955],remaining activity at 1 µM,93.6%
Cc1cccc(C[C@H](CO)NCc2cnc(C3CCCCC3)s2)c1 [ZINC000526962900],remaining activity at 1 µM,60.7%
C[C@@H](N[C@H]1Cc2ccccc2NC1=O)[C@@H]1C[C@H]1c1ccc(Cl)s1 [ZINC000528002641],remaining activity at 1 µM,84%
O=C(NC[C@@H]1CNCCO1)N1CCN(S(=O)(=O)C2CC2)CC1 [ZINC000529344158],remaining activity at 1 µM,135%
C[C@@H](C(=O)Nc1cccc(C2CCCCC2)c1)N1CCN(C)CC1 [ZINC000529649527],remaining activity at 1 µM,84.3%
CC1(C)[C@H](NC(=O)[C@]2(O)CCN(Cc3ccccc3)C2)[C@@H]2CCCO[C@@H]21 [ZINC000531059007],remaining activity at 1 µM,87.5%
CC(=O)N1CCN(C(=O)C(=O)Nc2cnn(-c3ccccn3)c2)CC1 [ZINC000531495018],remaining activity at 1 µM,99.3%
COC(=O)c1ccccc1NC(=O)CN1C[C@@H](c2ccccc2)C[C@@H]1C [ZINC000532978237],remaining activity at 1 µM,119%
C[C@H](C(=O)Nc1ccc(F)cc1Cl)N1CC[C@H](N2CCCC2)C1 [ZINC000533411740],remaining activity at 1 µM,79.7%
Cc1cc(NC(=O)[C@H](C)N2CCC[C@@H]([C@H](C)O)C2)ccc1Br [ZINC000534109220],remaining activity at 1 µM,70.4%
CCc1cc(N2CCC[C@@H](N[C@H](C)c3ccc(OC)c(Cl)c3)C2)ncn1 [ZINC000536865847],remaining activity at 1 µM,36.3%
CCCC1CCC(CN2CCN(CC(=O)N(CC)CC)CC2)CC1 (stereo not drawn) [ZINC000539406733],remaining activity at 1 µM,34%
C[C@@H](C(=O)NCc1ccccc1Cl)N1CC[C@H](n2ncc3ccccc32)C1 [ZINC000542825037],remaining activity at 1 µM,107%
COc1cccc2ncnc(N3CCN(CC4CCOCC4)CC3)c12 [ZINC000543048256],remaining activity at 1 µM,109%
FC(F)(F)c1cccc([C@@]2(F)CCN(C[C@@H]3CCSC3)C2)c1 [ZINC000549824186],remaining activity at 1 µM,20%
Cc1nc(CN2CC[C@H](CC3CC3)C2)nc2ccccc12 [ZINC000550423124],remaining activity at 1 µM,43.5%
Cn1nccc1[C@@H]1CCC[C@@H](N[C@H]2CC3CCC2CC3)C1 [ZINC000550829396],remaining activity at 1 µM,19.6%
CN1CCN(CCCCNC(=O)C(=O)N2CCSCC2)CC1 [ZINC000555574173],remaining activity at 1 µM,107%
CC(C)OCCN1CCC(NC(=O)[C@@H]2CCc3nncn3C2)CC1 [ZINC000556484619],remaining activity at 1 µM,112%
CN1CC[C@](O)(CN[C@@H](c2sccc2Br)C2CCCCC2)C1 [ZINC000556573026],remaining activity at 1 µM,16.7%
CN1CCN(C(=O)C(=O)N2CCCN(C3CCCC3)CC2)CC1=O [ZINC000556797005],remaining activity at 1 µM,79.9%
COCCN1CCC[C@@H]1CNC(=O)C(=O)N1CCC[C@@H](C(C)C)CC1 [ZINC000557493019],remaining activity at 1 µM,113%
CC1CCC(CNC(=O)C(=O)NC2CCN([C@@H]3CCC[C@@H]3O)CC2)CC1 (stereo partly drawn) [ZINC000564110976],remaining activity at 1 µM,78.2%
Cc1csc2nc(CN[C@H]3C[C@H](OCc4ccccc4)C3(C)C)cc(=O)n12 [ZINC000567338231],remaining activity at 1 µM,34.7%
C[C@H](C(=O)NCc1ccc(Cl)cc1)N1CC[C@@H](c2cccnc2)C1 [ZINC000571080072],remaining activity at 1 µM,64%
CCc1ccc([C@@H](C)N[C@@H]2CCCN(C(=O)CCC(F)(F)F)C2)s1 [ZINC000574285278],remaining activity at 1 µM,76.2%
C[C@@H]1C[C@H](NC(=O)C(=O)N(C)Cc2c(Cl)cccc2Cl)CN1C1CC1 [ZINC000574318236],remaining activity at 1 µM,100%
CCc1nc2cc(CN[C@@H](C)CC(=O)N3CCCCCC3)ccc2n1C1CC1 [ZINC000574654702],remaining activity at 1 µM,48.4%
Cc1ccc2c(c1)[C@H](NC(=O)NC[C@@H]1CCN(C(C)C)C1)CCC2 [ZINC000575186982],remaining activity at 1 µM,22.9%
C[C@H](NC1CC1)C(=O)NCc1ccc(C(=O)N=c2cc[nH]cc2)cc1 [ZINC000576277949],remaining activity at 1 µM,67.2%
C[C@H](Cc1ccccc1Br)NCC1(O)CCC1 [ZINC000577603040],remaining activity at 1 µM,61.7%
O[C@@H]1CC[C@@H]2CN(Cc3cccc4c[nH]nc34)C[C@@H]21 [ZINC000582751592],remaining activity at 1 µM,72.4%
Fc1cccc(Cl)c1CNC1CCC2(CCCO2)CC1 (stereo not drawn) [ZINC000584028046],remaining activity at 1 µM,18.4%
CC1(C)Cc2cc(C(=O)N3CCC[C@@H](N4CCCC4)CC3)ccc2O1 [ZINC000584233558],remaining activity at 1 µM,22.7%
C[C@@H](C(=O)NC[C@H](C)N1CCCC1)c1c(Cl)cccc1Cl [ZINC000586751050],remaining activity at 1 µM,98.2%
O=C(Cn1cc([N+](=O)[O-])ccc1=O)N1CC[C@H](N2CC[C@@H](O)C2)C1 [ZINC000588863575],remaining activity at 1 µM,134%
C[C@H](CN(C)CC(=O)NCc1cccc(Cl)c1)c1ccccc1 [ZINC000589606863],remaining activity at 1 µM,68.9%
CC(C)Cc1ccc(C(=O)N2CCN([C@@H]3CCC[C@@H]3O)CC2)cc1 [ZINC000592403811],remaining activity at 1 µM,153%
CCCN1CC[C@H](NS(=O)(=O)c2ccc(C(=O)OC)cc2F)C1 [ZINC000595353335],remaining activity at 1 µM,97.7%
N#Cc1sccc1N1CCN(CCCCCn2cccn2)CC1 [ZINC000595632104],remaining activity at 1 µM,45.7%

# Reference: doi:10.1101/2021.04.29.441652v1 (biorxiv, 2021)
